# Read-outs that look alike come from different tables or passages of the source.
# Tests used:
# [1] = system: HBV; assay: In vitro antiviral assay: anti-HBV replication in HepAD38 cells (extracellular HBV DNA by QPCR); type: cell-based, hepatitis B virus (genotype D, serotype ayw); conditions: 7 days incubation, extracellular HBV DNA by QPCR, read-out: Anti-HBV EC50
# In short: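 HepG2-derived HepAD38 cells (HBV genotype D, ayw, tet-repressible CMV) induced by tetracycline withdrawal, treated 7 days at 37 °C with compound (1 μM to 10 pM, 10-fold steps). Supernatant HBV DNA quantified by QPCR against standard curve, percent of DMSO control; EC50 by 4-parameter fit; entecavir positive control.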
# [2] = In vitro cytotoxicity assay (MTT cell viability) in HepG2 cells; type: cell-based, human; conditions: human
# In short: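 CC50 was derived by 4-parameter fit of viability relative to vehicle controls, measured as MTT formazan absorbance at 492 nm after 3–4 h of reagent and DMSO solubilization. Before that, HepG2 cells seeded overnight at 20,000/well were incubated 7 days at 37°C with compound from 30 μM down to 1.0 nM in half-log steps.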
# [3] = Hepatitis B virus, HePAD38, 168 h
SMILES,"EC50 [1, 3]",CC50 at 7 days [2],EC50 [1]
"Cc1cc(NC(=O)c2c(C)c(C(=O)C(=O)Nc3ccccc3N3CCOCC3)n(C)c2C)ccc1F [Example 52, N-(4-fluoro-3-methylphenyl)-1,2,4-trimethyl-5-(2-((2-morpholinophenyl)amino)-2-oxoacetyl)-1H-pyrrole-3-carboxamide]",50 to 499 nM,5 to 30 µM,–
"Cc1cc(NC(=O)c2c(C)c(C(=O)C(=O)Nc3cccnc3N3CCOCC3)n(C)c2C)ccc1F [Example 53, N-(4-fluoro-3-methylphenyl)-1,2,4-trimethyl-5-(2-((2-morpholinopyridin-3-yl)amino)-2-oxoacetyl)-1H-pyrrole-3-carboxamide]",< 50 nM,> 30 µM,–
"Cc1cc(NC(=O)c2c(C)c(C(=O)C(=O)Nc3ccncc3N3CCOCC3)n(C)c2C)ccc1F [Example 54, N-(4-fluoro-3-methylphenyl)-1,2,4-trimethyl-5-(2-((3-morpholinopyridin-4-yl)amino)-2-oxoacetyl)-1H-pyrrole-3-carboxamide]",500 to 1000 nM,> 30 µM,–
"COC(=O)c1cc(NC(=O)c2c(C)c(C(=O)C(=O)NC(C)(C)C)n(C)c2C)ccc1F [Example 55, methyl 5-(5-(2-(tert-butylamino)-2-oxoacetyl)-1,2,4-trimethyl-1H-pyrrole-3-carboxamido)-2-fluorobenzoate]",> 1000 nM,> 30 µM,–
"Cc1c(C(=O)Nc2ccc(F)c(C(=O)O)c2)c(C)n(C)c1C(=O)C(=O)NC(C)(C)C [Example 56, 5-(5-(2-(tert-butylamino)-2-oxoacetyl)-1,2,4-trimethyl-1H-pyrrole-3-carboxamido)-2-fluorobenzoic acid]",500 to 1000 nM,> 30 µM,–
"Cc1c(C(=O)Nc2ccc(F)c(C(N)=O)c2)c(C)n(C)c1C(=O)C(=O)NC(C)(C)C [Example 57, 5-(2-(tert-butylamino)-2-oxoacetyl)-N-(3-carbamoyl-4-fluorophenyl)-1,2,4-trimethyl-1H-pyrrole-3-carboxamide]",> 1000 nM,> 30 µM,–
"Cc1c(C(=O)NCc2noc(C(F)(F)F)n2)c(C)n(C)c1C(=O)C(=O)NC(C)(C)C [Example 58, 5-(2-(tert-butylamino)-2-oxoacetyl)-1,2,4-trimethyl-N-((5-(trifluoromethyl)-1,2,4-oxadiazol-3-yl)methyl)-1H-pyrrole-3-carboxamide]",> 1000 nM,> 30 µM,–
"Cc1c(C(=O)Nc2ccc(F)c(C#N)c2)c(C)n(C)c1C(=O)C(=O)NC(C)(C)C [Example 59, 5-(2-(tert-butylamino)-2-oxoacetyl)-N-(3-cyano-4-fluorophenyl)-1,2,4-trimethyl-1H-pyrrole-3-carboxamide]",< 50 nM,> 30 µM,–
"Cc1c(C(=O)Nc2ccc(F)c(Br)c2)c(C)n(C)c1C(=O)C(=O)NC(C)(C)C [Example 60, N-(3-bromo-4-fluorophenyl)-5-(2-(tert-butylamino)-2-oxoacetyl)-1,2,4-trimethyl-1H-pyrrole-3-carboxamide]",< 50 nM,> 30 µM,–
"Cc1c(C(=O)N2CCC(C)(O)CC2)c(C)n(C)c1C(=O)C(=O)NC(C)(C)C [Example 61, N-(tert-butyl)-2-(4-(4-hydroxy-4-methylpiperidine-1-carbonyl)-1,3,5-trimethyl-1H-pyrrol-2-yl)-2-oxoacetamide]",500 to 1000 nM,> 30 µM,–
"Cc1c(C(=O)Nc2ccc(N3CCOCC3)nc2)c(C)n(C)c1C(=O)C(=O)NC(C)(C)C [Example 62, 5-(2-(tert-butylamino)-2-oxoacetyl)-1,2,4-trimethyl-N-(6-morpholinopyridin-3-yl)-1H-pyrrole-3-carboxamide]",> 1000 nM,> 30 µM,–
"Cc1cc(NC(=O)c2c(C)c(C(=O)C(=O)NC3(C)CC(OP(=O)(O)O)C3)n(C)c2C)ccc1F (stereo not drawn) [Example 63, (1s,3s)-3-(2-(4-((4-fluoro-3-methylphenyl)carbamoyl)-1,3,5-trimethyl-1H-pyrrol-2-yl)-2-oxoacetamido)-3-methylcyclobutyl dihydrogen phosphate]",–,> 30 µM,> 1000 nM
"Cc1c(C(=O)Nc2cccc(S(N)(=O)=O)c2)c(C)n(C)c1C(=O)C(=O)NC(C)(C)C [Example 65, 5-(2-(tert-butylamino)-2-oxoacetyl)-1,2,4-trimethyl-N-(3-sulfamoylphenyl)-1H-pyrrole-3-carboxamide]",> 1000 nM,> 30 µM,–
"Cc1cccc(NC(=O)c2c(C)c(C(=O)C(=O)NC(C)(C)C)n(C)c2C)c1F [Example 66, 5-(2-(tert-butylamino)-2-oxoacetyl)-N-(2-fluoro-3-methylphenyl)-1,2,4-trimethyl-1H-pyrrole-3-carboxamide]",< 50 nM,> 30 µM,–
"Cc1cc(F)cc(NC(=O)c2c(C)c(C(=O)C(=O)NC(C)(C)C)n(C)c2C)c1 [Example 67, 5-(2-(tert-butylamino)-2-oxoacetyl)-N-(3-fluoro-5-methylphenyl)-1,2,4-trimethyl-1H-pyrrole-3-carboxamide]",< 50 nM,> 30 µM,–
"Cc1ccc(F)c(NC(=O)c2c(C)c(C(=O)C(=O)NC(C)(C)C)n(C)c2C)c1 [Example 68, 5-(2-(tert-butylamino)-2-oxoacetyl)-N-(2-fluoro-5-methylphenyl)-1,2,4-trimethyl-1H-pyrrole-3-carboxamide]",< 50 nM,> 30 µM,–
"Cc1c(C(=O)Nc2ccc(F)c(S(C)(=O)=O)c2)c(C)n(C)c1C(=O)C(=O)NC(C)(C)C [Example 69, 5-(2-(tert-butylamino)-2-oxoacetyl)-N-(4-fluoro-3-(methylsulfonyl)phenyl)-1,2,4-trimethyl-1H-pyrrole-3-carboxamide]",> 1000 nM,> 30 µM,–
"CC(=O)N1CCC(CO)(NC(=O)C(=O)c2c(C)c(C(=O)Nc3ccc(F)c(C)c3)c(C)n2C)CC1 [Example 72, 5-(2-((1-acetyl-4-(hydroxymethyl)piperidin-4-yl)amino)-2-oxoacetyl)-N-(4-fluoro-3-methylphenyl)-1,2,4-trimethyl-1H-pyrrole-3-carboxamide]",< 50 nM,> 30 µM,–
"Cc1cc(NC(=O)c2c(C)c(C(=O)C(=O)NC3(CO)CCN(S(C)(=O)=O)CC3)n(C)c2C)ccc1F [Example 73, N-(4-fluoro-3-methylphenyl)-5-(2-((4-(hydroxymethyl)-1-(methylsulfonyl)piperidin-4-yl)amino)-2-oxoacetyl)-1,2,4-trimethyl-1H-pyrrole-3-carboxamide]",< 50 nM,> 30 µM,–
"Cc1cc(NC(=O)c2c(C)c(C(=O)C(=O)NC3(CO)CCN(C(=O)c4cnn(C)c4)CC3)n(C)c2C)ccc1F [Example 74, N-(4-fluoro-3-methylphenyl)-5-(2-((4-(hydroxymethyl)-1-(1-methyl-1H-pyrazole-4-carbonyl)piperidin-4-yl)amino)-2-oxoacetyl)-1,2,4-trimethyl-1H-pyrrole-3-carboxamide]",< 50 nM,> 30 µM,–
"Cc1cc(NC(=O)c2c(C)c(C(=O)C(=O)NC3(CO)CCN(C(=O)c4cn(C)nc4C(F)F)CC3)n(C)c2C)ccc1F [Example 75, 5-(2-((1-(3-(difluoromethyl)-1-methyl-1H-pyrazole-4-carbonyl)-4-(hydroxymethyl)piperidin-4-yl)amino)-2-oxoacetyl)-N-(4-fluoro-3-methylphenyl)-1,2,4-trimethyl-1H-pyrrole-3-carboxamide]",< 50 nM,> 30 µM,–
"Cc1cc(NC(=O)c2c(C)c(C(=O)C(=O)NC3(CO)CCN(C(=O)c4ccnn4C)CC3)n(C)c2C)ccc1F [Example 76, N-(4-fluoro-3-methylphenyl)-5-(2-((4-(hydroxymethyl)-1-(1-methyl-1H-pyrazole-5-carbonyl)piperidin-4-yl)amino)-2-oxoacetyl)-1,2,4-trimethyl-1H-pyrrole-3-carboxamide]",< 50 nM,> 30 µM,–
"Cc1c(C(=O)Nc2cccc(Cl)n2)c(C)n(C)c1C(=O)C(=O)N[C@H](C)C(F)(F)F [Example 77, (R)-N-(6-chloropyridin-2-yl)-1,2,4-trimethyl-5-(2-oxo-2-((1,1,1-trifluoropropan-2-yl)amino)acetyl)-1H-pyrrole-3-carboxamide]",50 to 499 nM,> 30 µM,–
"CC(=O)N1CC[C@H](NC(=O)C(=O)c2c(C)c(C(=O)Nc3ccc(F)c(C)c3)c(C)n2C)C[C@H]1C [Example 78, 5-(2-(((2R,4S)-1-acetyl-2-methylpiperidin-4-yl)amino)-2-oxoacetyl)-N-(4-fluoro-3-methylphenyl)-1,2,4-trimethyl-1H-pyrrole-3-carboxamide]",< 50 nM,> 30 µM,–
"Cc1c(C(=O)Nc2cc(Cl)cc(Cl)c2)c(C)n(C)c1C(=O)C(=O)N[C@H](C)C(F)(F)F [Example 79, (R)-N-(3,5-dichlorophenyl)-1,2,4-trimethyl-5-(2-oxo-2-((1,1,1-trifluoropropan-2-yl)amino)acetyl)-1H-pyrrole-3-carboxamide]",< 50 nM,5 to 30 µM,–
"Cc1cc(NC(=O)c2c(C)c(C(=O)C(=O)NC34CC(C3)C4)n(C)c2C)ccc1F [Example 80, 5-(2-(bicyclo[1.1.1]pentan-1-ylamino)-2-oxoacetyl)-N-(4-fluoro-3-methylphenyl)-1,2,4-trimethyl-1H-pyrrole-3-carboxamide]",< 50 nM,5 to 30 µM,–
"Cc1cc(NC(=O)c2c(C)c(C(=O)C(=O)NC3(C)CNC(=O)C34CC4)n(C)c2C)ccc1F (stereo not drawn) [Example 81, N-(4-fluoro-3-methylphenyl)-1,2,4-trimethyl-5-(2-((7-methyl-4-oxo-5-azaspiro[2.4]heptan-7-yl)amino)-2-oxoacetyl)-1H-pyrrole-3-carboxamide]",< 50 nM,> 30 µM,–
